Data reported in PMC11250742, “Preclinical evaluation of CXCR4 peptides for targeted radionuclide therapy in glioblastoma” (EJNMMI Radiopharmacy and Chemistry, 2024).
Where a SMILES comes first, the peptide text is derived from it. Bridges are numbered along the chain shown (N, C = ends). Roman numbers before positions name the chains, in order. [ ]: non-standard residue; d: D form. The star is where a group is joined. DOTA = O=C(O)CN1CCN(CC(=O)O)CCN(CC(=O)*)CCN(CC(=O)O)CC1

What was measured:
Type in all cases: cell-based
U87-CXCR4 + cells [1] = experiment: Cell membrane binding and internalisation assay
Description: In the saturation binding assays, U87-CXCR4 + cells were seeded in 24-well plates and allowed to adhere. The night before the experiment, complete media was replaced with media containing 2% FBS. To determine the total binding, cells were treated with a mixture of each radiolabelled peptide (at final concentrations ranging from 0.1 to 1000 nM, corresponding to activity concentrations ranging from 0.005 to 50 MBq/mL) with 0.2% dimethyl sulfoxide (DMSO, vehicle). Non-specific binding (NSB) was verified by treating cells with a mixture of each radiolabelled peptide with 100 µM of AMD11070, a potent CXCR4 antagonist.
After 4 h of incubation at 37 °C and 5% CO2, the unbound fraction was collected in gamma counter tubes, and the cells were washed twice with PBS. The wash fractions were added to the same gamma counter tubes. Next, cells were lysed by incubation with 1 M NaOH for 30 min at room temperature (RT). After collecting the lysed cell fractions, two washes with 1 M NaOH were performed, and added to the same fractions, corresponding to the total bound fractions.
For the internalisation assay, 1 and 100 nM of the radiolabelled peptides were used. The membrane-bound fraction was separated from the internalised fraction by a 10 min incubation at RT with a stripping buffer of 50 mM glycine and 100 mM NaCl, pH 2.8. This was followed by lysis with 1 M NaOH as described above.
The activities of all collected fractions were measured in an automated gamma counter. Activity measurements were converted to % added activity (%AA) and normalised for cell counts. A standard curve, obtained by measuring the treatment solutions, was used to convert the activity concentration to moles.

U87-CXCR4 + cells [2] = experiment: MTS cell viability assay; conditions: for cell viability: % of vehicle, mean ± SD
Description: Cell viability assays were performed using increasing activity concentrations of the radiolabelled peptides (1 to 20 MBq/mL), incubated with U87-CXC4 + cells for four hours at 37 °C, 5% CO2. After the incubation period, cells were washed twice with PBS and replenished with complete media. After five and seven days of treatment, the cell media was removed and MTS (3-(4,5-dimethylthiazol-2-yl)-5-(3-carboxymethoxyphenyl)-2-(4-sulfophenyl)-2 H-tetrazolium) reagent added, prepared according to manufacturer’s instructions (CellTiter 96® AQueous One Solution Cell Proliferation Assay, Promega, Wisconsin, United States). To determine the effect of the radiation originating from unbound radiolabelled peptides, cells were treated with equivalent activity concentrations of [^177Lu]Lu-DTPA. Triton X-100 (0.1%) was used as a positive control. Vehicle includes the NaOAc radiolabeling buffer at the concentration used for the 20 MBq/mL peptide solutions. The cells were incubated for 0.5–1 h with the MTS reagent at 37 °C, 5% CO2. Absorbance was measured at 490 nm using a BioTek Synergy H1 plate reader (Agilent Technologies, Mechelen, Belgium). Cell viability was normalised to the vehicle and calculated as percentage of cell viability.

U87-CXCR4 + cells [3] = experiment: Apoptosis live cell imaging (Annexin V, Caspase 3/7; IncuCyte); conditions: day 5, 4 h, normalised to confluence and vehicle, N = 2
Description: Apoptosis was measured using the IncuCyte® Zoom system (Essen Bioscience, Hertfordshire, UK).
Briefly, cells were seeded in 96-well plates, and left to attach overnight at 37 °C, 5% CO2. Next, cells were treated with different activity concentrations of [^177Lu]Lu-DOTA-POL3026 or [^177Lu]Lu-DTPA, ranging from 1 to 20 MBq/mL. After four hours of incubation at 37 °C and 5% CO2, cells were washed twice with PBS. The Sartorius™ IncuCyte® dyes Caspase 3/7 green reagent and Annexin V red reagent were added at 1/2000 and 1/200 dilutions, respectively. Images were analysed using the IncuCyte® Zoom software. The average values of Green Calibrated Unit GCU x µm² (for Caspase 3/7) and Red Calibrated Units RCU x µm² (for Annexin V) signal were normalised to cell confluence percentages, five and seven days after treatment. Vehicle includes the NaOAc radiolabeling buffer at the concentration used for the 20 MBq/mL peptide solutions.

U87-CXCR4 + cells [4] = experiment: DNA damage immunofluorescence (yH2AX / 53BP1)
Description: DNA damage in U87-CXCR4 + cells was detected by immunofluorescent staining of the DNA damage and repair proteins, phospho-H2A histone family member X (yH2Ax) and p53-binding protein 1 (53BP1). Briefly, cells were seeded in 96-well plates and left overnight to adhere at 37 °C, 5% CO2. Next, cells were treated with different activity concentrations of [^177Lu]Lu-DOTA-POL3026 or [^177Lu]Lu-DTPA, ranging from 1 to 20 MBq/mL. After four hours of incubation, cells were washed twice with PBS, replenished with fresh media, and left at 37 °C, 5% CO2 until the fixation time point. For fixation, cells were washed with PBS, and fixed by incubating them with 4% paraformaldehyde (PFA) for 15 min at RT. This was done 0, 24 and 120 h after treatment. Cells were washed twice with PBS and stored in PBS at 4 °C until the residual radioactivity in the plate decayed. The vehicle includes the NaOAc radiolabeling buffer at the concentration used for the 20 MBq/mL peptide solutions.
After decay storage, yH2Ax/53BP1 double staining was performed using the following protocol. First, cells were washed once with PBS-glycine and then permeabilised by washing them for 10 min with PBS-Triton X-100. […]
Cells were imaged at 40x magnification using a BioTek Cytation 5 (Agilent Technologies, Mechelen, Belgium), where 4 fields were imaged per well, ensuring that at least a hundred cells were counted per condition. […]

| SMILES | added activity bound to the cell membrane (U87-CXCR4 + cells [1]; 1 nM, 4 h, 37 °C, glycine stripping buffer pH 2.8, mean ± SD, N = 2) | added activity internalised (U87-CXCR4 + cells [1]; 1 nM, 4 h, 37 °C, mean ± SD, N = 2) [%AA] | reduction of binding in presence of 100 µM AMD11070 (specific binding) (U87-CXCR4 + cells [1]; 1 nM, stated after the internalised fractions) | change of uptake (%AA) at 100 nM compared with 1 nM (U87-CXCR4 + cells [1]; incubation concentration 100 nM) | cell viability (U87-CXCR4 + cells [2]; 1 MBq/mL, day not stated in the sentence (follows the day 7 statement)) [%] | cell viability (U87-CXCR4 + cells [2]; day 5, 20 MBq/mL, 4 h incubation, N = 3–4) [%] | effect on cell viability (U87-CXCR4 + cells [2]; day 7, 2 to 20 MBq/mL) | Annexin V signal (U87-CXCR4 + cells [3]; 1 MBq/mL) [times the vehicle] | Annexin V signal (U87-CXCR4 + cells [3]; 10 MBq/mL) [times the vehicle] | increase of yH2AX (U87-CXCR4 + cells [4]; any of the activity concentrations (1–20 MBq/mL)) | increase in 53BP1 (U87-CXCR4 + cells [4]; any timepoint (0 h, 1 day, 5 days) after treatment) |
| --- | --- | --- | --- | --- | --- | --- | --- | --- | --- | --- | --- |
| CC(C)C[C@@H](N)C(=O)NCC(=O)N[C@H](C)C(=O)N[C@H](CO)C(=O)N[C@H](Cc1c[nH]c2ccccc12)C(=O)N[C@H](Cc1c[nH]cn1)C(=O)N[C@H](CCCNC(=N)N)C(=O)N1CCC[C@@H]1C(=O)N[C@H](CC(=O)O)C(=O)N[C@H](CCCCNC(=O)CN1CCN(CC(=O)O)CCN(CC(=O)O)CCN(CC(=O)O)CC1)C(=O)NCCCC[C@@H](NC(=O)[C@H]1CCCN1C(=O)[C@@H](CC(C)C)NC(=O)[C@H]1CCCN1C(=O)[C@@H](CCCNC(=N)N)NC(=O)[C@@H](CCCCN)NC(=O)[C@@H](CCC(N)=O)NC(=O)[C@@H](Cc1ccc(O)cc1)NC(=O)CNC(=O)[C@@H](CC(C)C)NC(=O)[C@@H](CS)NC(=O)[C@@H](CS)NC(=O)[C@@H](CCCCN)NC(=O)[C@@H](CC(=O)O)NC(=O)[C@H]1CCCN1C(=O)[C@@H](CCCNC(=N)N)NC(=O)[C@@H](Cc1c[nH]cn1)NC(=O)[C@@H](Cc1c[nH]c2ccccc12)NC(=O)[C@@H](CO)NC(=O)[C@@H](C)NC(=O)CNC(=O)[C@H](N)CC(C)C)C(N)=O [[^177Lu]Lu-DOTA-DV1-K-DV3, metal not drawn] (I: H-[dL]G[dA][dS][dW][dH][dR][dP][dD][dK][dC][dC][dL]G[dY][dQ][dK][dR][dP][dL][dP][dK]-NH2 / II: H-[dL]G[dA][dS][dW][dH][dR][dP][dD][dK](DOTA); amide I:22-II:C; N-terminus and C-terminus assumed) | less than 1 %AA | 0.2 ± 0.02 | negligible | did not significantly increase | – | – | – | – | – | – | – |
| O=C([O-])CN(CCN(CC(=O)[O-])CC(=O)[O-])CCN(CC(=O)[O-])CC(=O)[O-].[177Lu+3] [[^177Lu]Lu-DTPA] | – | – | – | – | 90.9 ± 7.8 | 50.2 ± 10.4 | statistically-significant reduction | 1.4 ± 0.8 | 3.3 ± 3.3 | did not result in an increase | No statistically-significant increase |
